According to ChEMBL document CHEMBL1909640, “Mode of action investigation for the antibacterial cationic anthraquinone analogs” (2011):
Active and inactive are the calls of the source. The rule behind the calls is not given here.

What was measured:
Staphylococcus aureus [1] = assay: Induction of redox process disruption in Staphylococcus aureus ATCC 25923 at 0.064 ug/mL after 6 hrs by CTC dye based assay; type: functional, organism-based
Escherichia coli [2] = assay: Induction of plasma membrane disruption in Escherichia coli ATCC 25922 at 2 mg/mL after 10 mins by Sytox dye based assay; type: functional, organism-based
Staphylococcus aureus [3] = assay: Induction of plasma membrane disruption in Staphylococcus aureus ATCC 25923 at 0.064 ug/mL after 10 mins by Sytox dye based assay; type: functional, organism-based
Staphylococcus aureus [4] = assay: Induction of plasma membrane disruption in Staphylococcus aureus ATCC 25923 at 8 ug/mL after 10 mins by Sytox dye based assay; type: functional, organism-based
Staphylococcus aureus [5] = assay: Induction of redox process disruption in Staphylococcus aureus ATCC 25923 at 0.064 ug/mL after 2 hrs by CTC dye based assay; type: functional, organism-based
Staphylococcus aureus [6] = assay: Induction of redox process disruption in Staphylococcus aureus ATCC 25923 at 8 ug/mL after 2 hrs by CTC dye based assay; type: functional, organism-based
Staphylococcus aureus [7] = assay: Induction of plasma membrane disruption in Staphylococcus aureus ATCC 25923 at 8 ug/mL after 2 hrs by Sytox dye based assay; type: functional, organism-based
Escherichia coli [8] = assay: Induction of redox process disruption in Escherichia coli ATCC 25922 at 2 mg/mL after 2 hrs by CTC dye based assay; type: functional, organism-based
Staphylococcus aureus [9] = assay: Antibacterial activity against Staphylococcus aureus ATCC 25923 after 12 to 18 hrs by broth dilution method; type: functional
Escherichia coli [10] = assay: Induction of plasma membrane disruption in Escherichia coli ATCC 25922 at 4 ug/mL after 2 hrs by Sytox dye based assay; type: functional, organism-based
Escherichia coli [11] = assay: Induction of redox process disruption in Escherichia coli ATCC 25922 at 2 mg/mL after 6 hrs by CTC dye based assay; type: functional, organism-based
Staphylococcus aureus [12] = assay: Induction of redox process disruption in Staphylococcus aureus ATCC 25923 at 8 ug/mL after 6 hrs by CTC dye based assay; type: functional, organism-based
Escherichia coli [13] = assay: Induction of plasma membrane disruption in Escherichia coli ATCC 25922 a 4 ug/mL after 10 mins by Sytox dye based assay; type: functional, organism-based
Escherichia coli [14] = assay: Induction of plasma membrane disruption in Escherichia coli ATCC 25922 at 2 mg/mL after 2 hrs by Sytox dye based assay; type: functional, organism-based
Escherichia coli [15] = assay: Induction of redox process disruption in Escherichia coli ATCC 25922 at 4 ug/mL after 6 hrs by CTC dye based assay; type: functional, organism-based
Escherichia coli [16] = assay: Induction of redox process disruption in Escherichia coli ATCC 25922 at 4 ug/mL after 2 hrs by CTC dye based assay; type: functional, organism-based
Staphylococcus aureus [17] = assay: Induction of plasma membrane disruption in Staphylococcus aureus ATCC 25923 at 0.064 ug/mL after 2 hrs by Sytox dye based assay; type: functional, organism-based
Escherichia coli [18] = assay: Antibacterial activity against Escherichia coli ATCC 25922 after 12 to 18 hrs by broth dilution method; type: functional

Compound	Activity (Staphylococcus aureus [1])	Activity (Escherichia coli [2])	Activity (Staphylococcus aureus [3])	Activity (Staphylococcus aureus [4])	Activity (Staphylococcus aureus [5])	Activity (Staphylococcus aureus [6])	Activity (Staphylococcus aureus [7])	Activity (Escherichia coli [8])	MIC (Staphylococcus aureus [9])	Activity (Escherichia coli [10])	Activity (Escherichia coli [11])	Activity (Staphylococcus aureus [12])	Activity (Escherichia coli [13])	Activity (Escherichia coli [14])	Activity (Escherichia coli [15])	Activity (Escherichia coli [16])	Activity (Staphylococcus aureus [17])	MIC (Escherichia coli [18])
CCCCCCCCn1n[n+](CC)c2c1C(=O)c1ccccc1C2=O.[Cl-]	inactive	Active	inactive	inactive	inactive	Active	inactive	Active	0.25 µg/mL	inactive	Active	Active	inactive	Active	inactive	inactive	inactive	≥ 250 µg/mL
Hexadecyltrimethylammonium bromide		Active												Active				
CCCCCCCCCCCCn1n[n+](C)c2c1C(=O)c1ccccc1C2=O.[Cl-]	inactive	Active	inactive	inactive	inactive	Active	inactive	Active	0.064 µg/mL	inactive	Active	Active	inactive	Active	inactive	inactive	inactive	16 µg/mL
CCCCCCCCn1n[n+](C)c2c1C(=O)c1ccccc1C2=O.[Cl-]	inactive	Active	inactive	inactive	inactive	Active	inactive	Active	0.032 µg/mL	inactive	Active	Active	inactive	Active	inactive	inactive	inactive	16 µg/mL
CCCCCCCCCCCCCCCCn1n[n+](C)c2c1C(=O)c1ccccc1C2=O.[Cl-]	inactive	Active	inactive	inactive	inactive	Active	inactive	Active	0.25 µg/mL	inactive	Active	Active	inactive	Active	inactive	inactive	inactive	≥ 250 µg/mL
CCCCCCCCCCn1n[n+](C)c2c1C(=O)c1ccccc1C2=O.[Cl-]	inactive	Active	inactive	inactive	inactive	Active	inactive	Active	0.032 µg/mL	inactive	Active	Active	inactive	Active	inactive	inactive	inactive	32 µg/mL
CCCCCCCCCCCn1n[n+](C)c2c1C(=O)c1ccccc1C2=O.[Cl-]	inactive	Active	inactive	inactive	inactive	Active	inactive	Active	0.25 µg/mL	inactive	Active	Active	inactive	Active	inactive	inactive	inactive	32 µg/mL
CCCCCCCCCn1n[n+](C)c2c1C(=O)c1ccccc1C2=O.[Cl-]	inactive	Active	inactive	inactive	inactive	Active	inactive	Active	0.032 µg/mL	inactive	Active	Active	inactive	Active	inactive	inactive	inactive	64 µg/mL
